Reference: patent US11078181B2, “Diaryl pyrazole compound and formulation for controlling harmful organisms” (Nippon Soda Co., Ltd., priority 2016, dated 2021)

Assays:
Type in all cases: in vivo
[1] = system: adult Phyllotreta striolata; assay: Efficacy test against Phyllotreta striolata (bok-choi seedling spray); details: 168 h, sprayed on bok-choi seedlings, adults, 7 days after inoculation, read-out: insect mortality rate
Protocol: (§1) 5 parts of the compound of the present invention, 93.6 parts of dimethylformamide and 1.4 parts of polyoxyethylene alkyl aryl ether were mixed and dissolved to prepare Emulsion (I) including 5% of an active ingredient.
(§2) An insect mortality rate and a controlling rate were calculated by the numerical equations shown below. Insect mortality rate(%)={(Number of dead insects)/(Number of sample insects)}×100 Controlling rate={1−(Nt)/(Nc)}×100 • wherein • Nt: number of parasites in spray-treated area; and • Nc: number of parasites in non-treated area
Emulsion (I) was diluted with water so that the concentration of the compound of the present invention was 125 ppm, to prepare a diluted liquid for testing. The aforementioned diluted liquid was sprayed on bok-choi seedlings (7th major leaf-development period) planted in No. 3 pots. After the bok-choi seedlings were subjected to air-drying, the seedlings were placed in plastic cups, followed by inoculating 10 adult Phyllotreta striolata. […] Mortality was investigated 7 days after inoculation, and the insect mortality rate was calculated. […]
Emulsion (I) was diluted with water so that the concentration of the compound of the present invention was 8 ppm, to prepare a diluted liquid for testing. […] Mortality was investigated 7 days after inoculation, and the insect mortality rate was calculated. […]

Nilaparvata lugens = assay: Efficacy test against Nilaparvata lugens (rice seedling dip); details: 168 h, rice seedlings soaked, second-instar larvae, 7 days after inoculation, read-out: insect mortality rate
Protocol: as §1, §2
Emulsion (I) was diluted with water so that the concentration of the compound of the present invention was 125 ppm. Rice seedlings were soaked in the diluted liquid for 30 seconds, and subjected to air-drying. Subsequently, the rice seedlings were placed in plastic cases, followed by inoculating 5 second-instar larvae of Nilaparvata lugens. The plastic cases were placed in a thermostatic chamber at a temperature of 25° C. and humidity of 65%. Mortality was investigated 7 days after inoculation, and the insect mortality rate was calculated. The test was performed twice.

Aphis craccivora = assay: Efficacy test against Aphis craccivora (black-eyed pea spray); details: in Vigna unguiculata, 96 h, sprayed on black-eyed pea plants, nymphs, 4 days after spraying, read-out: insect mortality rate
Protocol: as §1, §2
Black-eyed pea plants were raised in No. 3 pots and the primary leaves were inoculated with nymphs of Aphis craccivora. Emulsion (I) was diluted with water so that the concentration of the compound of the present invention was 125 ppm. Subsequently, the aforementioned diluted liquid was sprayed on the black-eyed pea plants on which the nymphs of Aphis craccivora were parasitic. The aforementioned black-eyed pea plants were then placed in a thermostatic chamber with a temperature of 25° C. and humidity of 60%. Mortality was investigated 4 days after spraying was carried out, and the insect mortality rate of Aphis craccivora was calculated. The test was performed twice.

[2] = system: first-instar larvae of Culex pipiens molestus; assay: Efficacy test against Culex pipiens molestus (larvae in chemical liquid); details: 24 h, first-instar larvae in 100 mL chemical liquid, after one day, read-out: insect mortality rate
Protocol: as §1, §2
Emulsion (I) was diluted with water so that the concentration of the compound of the present invention was 10 ppm, to prepare a chemical liquid for testing. 20 first-instar larvae of Culex pipiens molestus were released in 100 mL of the chemical liquid. After one day, the number of dead insects was counted, and the insect mortality rate was calculated. The test was performed twice.

Aphis gossypii = assay: Efficacy test against Aphis gossypii (cucumber seedling spray); details: 96 h, sprayed on cucumber seedlings, nymphs, 4 days after spraying, read-out: insect mortality rate
Protocol: as §1, §2
Emulsion (I) was diluted with water so that the concentration of the compound of the present invention was 125 ppm. Cucumbers were raised in No. 3 pots and the first leaves were inoculated with nymphs of Aphis gossypii. The diluted emulsion mentioned above was sprayed onto the cucumber seedlings. The aforementioned cucumber seedlings were then placed in a thermostatic chamber with a temperature of 25° C. and humidity of 60%. Mortality was investigated 4 days after spraying was carried out, and the insect mortality rate of Aphis gossypii was calculated. The test was performed twice.

Plutella xylostella = assay: Efficacy test against Plutella xylostella (cabbage leaf dip); details: foliar, 72 h, cabbage leaves soaked, second-instar larvae, 3 days after inoculation, read-out: insect mortality rate
Protocol: as §1, §2
Emulsion (I) was diluted with water so that the concentration of the compound of the present invention was 125 ppm. Cabbage leaves were soaked in the diluted liquid for 30 seconds. Subsequently, the cabbage leaves were put on Petri dishes, followed by inoculating 5 second-instar larvae of Plutella xylostella. The Petri dishes were placed in a thermostatic chamber at a temperature of 25° C. and humidity of 60%. Mortality was investigated 3 days after inoculation, and the insect mortality rate was calculated. The test was performed twice.

CCS(=O)(=O)c1ccc(-n2cncn2)nc1-n1ncc(-c2ccc(OC(F)(F)F)cc2)c1C [1-1, 3-(ethylsulfonyl)-2-(5-methyl-4-(4-(trifluoromethoxy)phenyl)-1H-pyrazol-1-yl)-6-(1H-1,2,4-triazol-1-yl)pyridine] gave a mortality at 8 ppm ([1]; 8 ppm) of no less than 80%, a mortality at 125 ppm ([1]; 125 ppm) of no less than 80% and a mortality at 125 ppm (Nilaparvata lugens) of no less than 80%. It also gave a mortality at 125 ppm (Aphis craccivora) of no less than 80%, a mortality at 10 ppm [2] of 100% and a mortality at 125 ppm (Aphis gossypii) of no less than 80%. For the same molecule, the mortality at 125 ppm (Plutella xylostella) was no less than 80%.
